Results reported in ChEMBL document CHEMBL6071160, “Identification of a novel 10-hydroxyevodiamine prodrug as a potent topoisomerase inhibitor with improved aqueous solubility for treatment of hepatocellular carcinoma” (Eur J Med Chem, 2024).
Active and inactive are the calls of the source. The rule behind the calls is not given here.

How the values were obtained:
SK-HEP1 [1] = assay: Inhibition of cell migration in human SK-HEP1 cells at 20 nM measured for 24 hrs by scratch wound healing assay; type: functional, cell-based
Huh-7 [2] = assay: Induction of cell cycle arrest in human Huh-7 cells assessed as accumulation of cells at S phase 40 nM measured after 24 hrs by flow cytometric assay (reference value: 23.33%); type: functional
[3] = Toxicity in BALB/c nude mouse subcutaneously injected with human Huh-7 cells assessed as change in white blood cells at 10 mg/kg, ip administered once daily measured after 14 days; type: organism-based; settings: in vivo, 336 h, time 14 day
Huh-7 [4] = assay: Inhibition of cell migration in human Huh-7 cells at 10 nM measured for 24 hrs by scratch wound healing assay; type: functional, cell-based
NCI-H1703 = assay: Antiproliferative activity against human NCI-H1703 cells assessed as decrease in EdU positive cells measured after 24 hrs by Edu incorporation based fluorescence microscopic analysis; type: functional, cell-based; settings: dose 10-40 nM
SK-HEP1 [5] = assay: Induction of apoptosis in human SK-HEP1 cells assessed as viable cells at 20 nM measured after 24 hrs by Annexin-V-FITC/PI analysis (reference value: 97.20%); type: functional; settings: read-out: Activity
[6] = Toxicity in BALB/c nude mouse subcutaneously injected with human Huh-7 cells assessed as change in body weight at 10 mg/kg, ip administered once daily measured after 14 days; type: organism-based; settings: in vivo, 336 h, time 14 day
[7] = Toxicity in BALB/c nude mouse subcutaneously injected with human Huh-7 cells assessed as changes in liver tissue at 10 mg/kg, ip administered once daily measured after 14 days by H and E staining based assay; type: organism-based; settings: in vivo, 336 h, time 14 day
Huh-7 [8] = assay: Induction of cell cycle arrest in human Huh-7 cells assessed as accumulation of cells at G2 phase 80 nM measured after 24 hrs by flow cytometric assay (reference value: 13.66%); type: functional
SK-HEP1 [9] = assay: Induction of apoptosis in human SK-HEP1 cells assessed as ROS generation by measuring DCFH2-DA stained cells at 20 nM measured after 24 hrs […] (reference value: 0.14%); type: functional
SK-HEP1 [10] = assay: Induction of cell cycle arrest in human SK-HEP1 cells assessed as accumulation of cells at G2 phase 80 nM measured after 24 hrs by flow cytometric assay (reference value: 22.41%); type: functional
SK-HEP1 [11] = assay: Inhibition of cell migration in human SK-HEP1 cells at 40 nM measured for 24 hrs by scratch wound healing assay; type: functional, cell-based
SK-HEP1 [12] = assay: Induction of apoptosis in human SK-HEP1 cells assessed as late apoptotic cells at 20 nM measured after 24 hrs by Annexin-V-FITC/PI analysis (reference value: 0.64%); type: functional
Huh-7 [13] = assay: Induction of cell cycle arrest in human Huh-7 cells assessed as accumulation of cells at G1 phase 80 nM measured after 24 hrs by flow cytometric assay (reference value: 63.01%); type: functional
[14] = Toxicity in BALB/c nude mouse subcutaneously injected with human Huh-7 cells assessed as change in body weight at 10 to 20 mg/kg, ip administered once daily measured after 14 days; type: organism-based; settings: in vivo, 336 h, dose 10-20 mg/kg, time 14 day
Huh-7 [15] = assay: Inhibition of cell migration in human Huh-7 cells at 40 nM measured for 24 hrs by scratch wound healing assay; type: functional, cell-based
Huh-7 [16] = assay: Antiproliferative activity against human Huh-7 cells assessed as inhibition of cell proliferation incubated for 72 hrs by MTT assay; type: functional, cell-based; settings: Huh-7, 72 h
[17] = AUC (0 to t) in Sprague-Dawley rat at 10 mg/kg, ip measured upto 24 hrs by LC-MS/MS analysis; type: ADME, organism-based; settings: in vivo
[18] = Toxicity in BALB/c nude mouse subcutaneously injected with human Huh-7 cells assessed as change in body weight at 40 mg/kg, ip administered once other day measured after 14 days; type: organism-based; settings: in vivo, 336 h, time 14 day
SK-HEP1 [19] = assay: Induction of apoptosis in human SK-HEP1 cells assessed as early apoptotic cells at 80 nM measured after 24 hrs by Annexin-V-FITC/PI analysis (reference value: 1.45%); type: functional
[20] = Toxicity in BALB/c nude mouse subcutaneously injected with human Huh-7 cells assessed as changes in kidney tissue at 10 mg/kg, ip administered once daily measured after 14 days by H and E staining based assay; type: organism-based; settings: in vivo, 336 h, time 14 day
[21] = Toxicity in BALB/c nude mouse subcutaneously injected with human Huh-7 cells assessed as changes in spleen tissue at 10 mg/kg, ip administered once daily measured after 14 days by H and E staining based assay; type: organism-based; settings: in vivo, 336 h, time 14 day
SK-HEP1 [22] = assay: Induction of cell cycle arrest in human SK-HEP1 cells assessed as accumulation of cells at S phase 20 nM measured after 24 hrs by flow cytometric assay (reference value: 30.04%); type: functional
[23] = Cmax in Sprague-Dawley rat at 10 mg/kg, ip measured upto 24 hrs by LC-MS/MS analysis; type: ADME, organism-based; settings: in vivo
[24] = Drug resistance index, ratio of IC50 for antiproliferative activity against human SMMC-7721 cells to antiproliferative activity against human Doxorubicin-resistant SMMC-7721 cells; type: functional
Huh-7 [25] = assay: In vivo antitumor activity against human Huh-7 cells subcutaneously injected into BALB/C nude mouse assessed as tumor growth inhibition at 10 mg/kg, ip administered once daily measured after 14 days; type: functional; settings: Huh-7, 336 h, time 14 day, read-out: TGI
SK-HEP1 [26] = assay: Induction of apoptosis in human SK-HEP1 cells assessed as ROS generation by measuring DCFH2-DA stained cells at 80 nM measured after 24 hrs […] (reference value: 0.14%); type: functional
Huh-7 [27] = assay: Inhibition of cell invasion in human Huh-7 cells assessed as decrease in number of cells migration into lower compartment at 40 nM measured after 24 hrs by transwell assay; type: functional, cell-based
[28] = MRT (0 to t) in Sprague-Dawley rat at 10 mg/kg, ip measured upto 24 hrs by LC-MS/MS analysis; type: ADME, organism-based; settings: in vivo
SK-HEP1 [29] = assay: Induction of apoptosis in human SK-HEP1 assessed as loss of mitochondrial membrane potential by measuring JC-1 stained cells at 40 nM measured after 24 hrs by JC-1 staining based flow cytometry (reference value: 0.49%); type: functional
SK-HEP1 [30] = assay: Induction of apoptosis in human SK-HEP1 cells assessed as necrotic cells at 40 nM measured after 24 hrs by Annexin-V-FITC/PI analysis (reference value: 0.70%); type: functional
Huh-7 [31] = assay: Antiproliferative activity against human Huh-7 cells assessed as inhibition of colony formation at 10 to 40 nM measured 1 to 2 weeks by human tumor clonogenic assays (HTCA); type: functional, cell-based; settings: dose 10-40 nM, time 1-2 weeks
Huh-7 [32] = assay: Induction of apoptosis in human Huh-7 cells assessed as early apoptotic cells at 20 nM measured after 24 hrs by Annexin-V-FITC/PI analysis (reference value: 1.04%); type: functional
HepG2 = assay: Antiproliferative activity against human HepG2 cells assessed as inhibition of cell proliferation incubated for 72 hrs by MTT assay; type: functional, cell-based; settings: HepG2, 72 h
Huh-7 [33] = assay: Induction of apoptosis in human Huh-7 cells assessed as viable cells at 40 nM measured after 24 hrs by Annexin-V-FITC/PI analysis (reference value: 97.46%); type: functional; settings: read-out: Activity

Question: Which inhibition (SK-HEP1 [1]) does the source give for `C[N+](C)(C)CCC(=O)Oc1ccc2[nH]c3c(c2c1)CCN1C(=O)c2cc(F)cc(F)c2N(c2cccc(F)c2)C31.[I-]` (stereo not given) here?
Answer: Active

Question: And the Activity (Huh-7 [2])?
Answer: 21.3%

Question: And the Activity [3]?
Answer: Non-Toxic

Question: And the inhibition (Huh-7 [4])?
Answer: Active

Question: And the Activity (NCI-H1703)?
Answer: Dose-Dependent Effect

Question: What about the viability at 0.02 µM (SK-HEP1 [5]) of the same molecule?
Answer: 97.2%

Question: And the Activity [6]?
Answer: Non-Toxic

Question: And the Activity [7]?
Answer: Non-Toxic

Question: And the Activity (Huh-7 [8])?
Answer: 86.5%

Question: And the Activity (SK-HEP1 [9])?
Answer: 0.47%

Question: What about the Activity (SK-HEP1 [10]) of the same molecule?
Answer: 68.55%

Question: And the inhibition (SK-HEP1 [11])?
Answer: Active

Question: What about the Activity (SK-HEP1 [12]) of the same molecule?
Answer: 0.71%

Question: And the Activity (Huh-7 [13])?
Answer: 6.79%

Question: And the Activity [14]?
Answer: Non-Toxic

Question: What about the inhibition (Huh-7 [15]) of the same molecule?
Answer: Active

Question: And the IC50 (Huh-7 [16])?
Answer: 40 nM

Question: And the AUC(0-t) at 24 h [17]?
Answer: 1540 ng·h/mL

Question: What about the Activity [18] of the same molecule?
Answer: Non-Toxic

Question: And the Activity (SK-HEP1 [19])?
Answer: 22.57%

Question: What about the Activity [20] of the same molecule?
Answer: Non-Toxic

Question: What about the Activity [21] of the same molecule?
Answer: Non-Toxic

Question: What about the Activity (SK-HEP1 [22]) of the same molecule?
Answer: 28.78%

Question: And the Cmax [23]?
Answer: 240 ng/mL

Question: And the Ratio [24]?
Answer: 1.2

Question: And the inhibition in vivo at 10 mg/kg (Huh-7 [25])?
Answer: 83.3%

Question: What about the Activity (SK-HEP1 [26]) of the same molecule?
Answer: 56.75%

Question: What about the inhibition (Huh-7 [27]) of the same molecule?
Answer: Active

Question: And the MRT last at 24 h [28]?
Answer: 4.64 h

Question: And the Activity (SK-HEP1 [29])?
Answer: 1.49%

Question: And the Activity (SK-HEP1 [30])?
Answer: 0.49%

Question: What about the Activity (Huh-7 [31]) of the same molecule?
Answer: Active

Question: And the Activity (Huh-7 [32])?
Answer: 1.31%

Question: And the IC50 (HepG2)?
Answer: 90 nM

Question: What about the viability at 0.04 µM (Huh-7 [33]) of the same molecule?
Answer: 94.2%
